Laboratory results taken from PubChem BioAssay (NCI).
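The compound was tested at five concentrations on cells cultured in 96-well plates, with a 48-hour exposure period. Abbreviation: GI50, concentration required for 50% inhibition of growth. TGI marks complete inhibition of growth.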

Columns and labels:
Assay in all cases: DTP human tumour cell line panel, 48 h
[1] = tested on: T-47D breast
[2] = tested on: HS 578T breast
[3] = tested on: A549 NSCLC
[4] = tested on: TK-10 renal
[5] = tested on: NCI-H460 lung
[6] = tested on: K-562 leukemia
[7] = tested on: UO-31 renal
[8] = tested on: ACHN renal
[9] = tested on: HT29 colon
[10] = tested on: NCI/ADR-RES ovarian
[11] = tested on: MDA-MB-435
[12] = tested on: MOLT-4 leukemia
[13] = tested on: CCRF-CEM leukemia
[14] = tested on: BT-549 breast
[15] = tested on: SNB-75 CNS
[16] = tested on: HOP-92 NSCLC
[17] = tested on: OVCAR-4 ovarian
[18] = tested on: EKVX NSCLC
[19] = tested on: MDA-MB-231 breast
[20] = tested on: A498 renal
[21] = tested on: UACC-257 melanoma
[22] = tested on: COLO 205 colon
[23] = tested on: RPMI-8226 leukemia
[24] = tested on: MCF7 breast
[25] = tested on: SK-MEL-2 melanoma
[26] = tested on: HOP-62 NSCLC
[27] = tested on: OVCAR-8 ovarian
[28] = tested on: SF-268 CNS
[29] = tested on: SR leukemia
[30] = tested on: NCI-H226 lung
[31] = tested on: M14 melanoma
[32] = tested on: SN12C renal
[33] = tested on: SK-MEL-28 melanoma
[34] = tested on: PC-3 prostate
[35] = tested on: NCI-H522 lung
[36] = tested on: NCI-H23 lung
[37] = tested on: HL-60(TB) leukemia
[38] = tested on: OVCAR-3 ovarian
[39] = tested on: SK-MEL-5 melanoma
[40] = tested on: U251 CNS
[41] = tested on: HCT-15 colon
[42] = tested on: HCT-116 colon
[43] = tested on: RXF 393 renal
[44] = tested on: SF-295 CNS
[45] = tested on: UACC-62 melanoma
[46] = tested on: SK-OV-3 ovarian
[47] = tested on: 786-0 renal
[48] = tested on: HCC-2998 colon
[49] = tested on: DU-145 prostate
[50] = tested on: IGROV1 ovarian
[51] = tested on: LOX IMVI melanoma
[52] = tested on: SW-620 colon
[53] = tested on: SF-539 CNS
[54] = tested on: KM12 colon
[55] = tested on: CAKI-1 renal
[56] = tested on: SNB-19 CNS
[57] = tested on: OVCAR-5 ovarian
[58] = tested on: MALME-3M melanoma

N#Cc1ccc(CSc2ncnc3nc[nH]c23)cc1
GI50 [1]: 80.7 µM
GI50 [2]: 72 µM
GI50 [3]: 92.4 µM
GI50 [4]: 37.3 µM
GI50 [5]: 43 µM
GI50 [6]: 63.7 µM
GI50 [7]: 30.7 µM
GI50 [8]: 38.4 µM
GI50 [9]: 77.3 µM
GI50 [10]: 54.3 µM
GI50 [11]: 79 µM
GI50 [12]: 92.8 µM
GI50 [13]: 95.1 µM
GI50 [14]: 95 µM
GI50 [15]: 6.86 µM
TGI [15]: 66.3 µM
GI50 [16]: 15.8 µM
TGI [16]: 79.5 µM
GI50 [17]: 97.4 µM
GI50 [18]: 90.1 µM
GI50 [19]: 94.4 µM
GI50 [20]: 80 µM
GI50 [21]: 73.3 µM
GI50 [22]: 52.2 µM
GI50 [23]: 54.9 µM

COc1ccc(N2C(=O)/C(=C/C(Cl)=C/c3ccc([N+](=O)[O-])cc3)SC2=S)cc1
GI50 [24]: 0.393 µM
TGI [24]: > 100 µM
GI50 [25]: > 21.3 µM
TGI [25]: > 100 µM
GI50 [1]: 0.725 µM
TGI [1]: > 100 µM
GI50 [2]: 3.28 µM
TGI [2]: > 37.9 µM
GI50 [4]: 2.76 µM
TGI [4]: > 100 µM
GI50 [6]: 0.555 µM
TGI [6]: > 100 µM
GI50 [26]: 2.12 µM
TGI [26]: > 100 µM
GI50 [27]: 0.462 µM
TGI [27]: > 100 µM
GI50 [10]: 0.562 µM
TGI [10]: > 100 µM
GI50 [28]: 2.95 µM
TGI [28]: > 100 µM
GI50 [12]: 0.679 µM
TGI [12]: > 100 µM
GI50 [29]: 0.312 µM
TGI [29]: 22 µM
GI50 [19]: 1.69 µM
TGI [19]: > 100 µM
GI50 [21]: 2.88 µM
TGI [21]: > 100 µM
GI50 [23]: 0.268 µM
TGI [23]: 0.727 µM
GI50 [30]: 4.23 µM
TGI [30]: > 100 µM

CCN1C(=O)N(CC)C2C1NN=c1s/c(=C\c3cccs3)c(=O)n12 (centres undefined)
GI50 [31]: 0.105 µM
TGI [31]: > 100 µM
GI50 [32]: 0.555 µM
TGI [32]: > 100 µM
TGI [33]: > 100 µM
GI50 [34]: 0.12 µM
TGI [34]: > 100 µM
GI50 [24]: 0.0496 µM
TGI [24]: > 100 µM
GI50 [25]: 1.41 µM
TGI [25]: > 100 µM
GI50 [35]: 0.0974 µM
TGI [35]: > 100 µM
GI50 [2]: 0.112 µM
GI50 [36]: 0.375 µM
TGI [36]: > 100 µM
GI50 [37]: 0.225 µM
TGI [37]: 0.707 µM
GI50 [38]: 0.0462 µM
GI50 [39]: 0.218 µM
TGI [39]: 4.26 µM
GI50 [3]: 0.244 µM
TGI [3]: > 100 µM
GI50 [4]: > 100 µM
TGI [4]: > 100 µM
GI50 [5]: 0.119 µM
GI50 [40]: 0.245 µM
TGI [40]: > 100 µM
GI50 [41]: 0.0575 µM
TGI [41]: > 100 µM
GI50 [6]: 0.0551 µM
TGI [6]: > 100 µM
GI50 [42]: 0.0903 µM
TGI [42]: > 100 µM
GI50 [7]: 0.594 µM
TGI [7]: > 100 µM
GI50 [43]: 0.141 µM
TGI [43]: > 100 µM
GI50 [26]: 0.302 µM
TGI [26]: > 100 µM
GI50 [44]: 0.069 µM
TGI [44]: > 100 µM
GI50 [8]: 0.253 µM
TGI [8]: > 100 µM
GI50 [9]: 0.0557 µM
TGI [9]: > 100 µM
GI50 [27]: 0.424 µM
TGI [27]: > 100 µM
TGI [45]: > 100 µM
GI50 [10]: 0.0831 µM
TGI [10]: > 100 µM
GI50 [46]: 0.649 µM
TGI [46]: > 100 µM
GI50 [47]: 1.03 µM
TGI [47]: > 100 µM
GI50 [48]: 0.257 µM
TGI [48]: > 100 µM
GI50 [49]: 0.281 µM
TGI [49]: > 29.9 µM
GI50 [50]: 0.217 µM
TGI [50]: > 100 µM
GI50 [11]: 0.0268 µM
TGI [11]: 0.0828 µM
GI50 [51]: 0.139 µM
TGI [51]: > 100 µM
GI50 [52]: 0.0667 µM
TGI [52]: > 100 µM
GI50 [28]: 1.67 µM
TGI [28]: > 100 µM
GI50 [12]: 0.396 µM
TGI [12]: > 100 µM
GI50 [13]: 0.256 µM
TGI [13]: > 100 µM
GI50 [14]: 0.443 µM
TGI [14]: > 100 µM
GI50 [53]: 0.0949 µM
TGI [53]: 0.812 µM
GI50 [15]: 0.0976 µM
TGI [15]: > 100 µM
GI50 [54]: 0.0545 µM
TGI [54]: > 82.6 µM
GI50 [16]: > 25.8 µM
TGI [16]: > 100 µM
GI50 [17]: 1.82 µM
TGI [17]: > 100 µM
TGI [18]: > 100 µM
GI50 [29]: 0.0576 µM
TGI [29]: > 100 µM
GI50 [19]: 0.468 µM
TGI [19]: > 100 µM
GI50 [55]: 0.0745 µM
TGI [55]: > 100 µM
GI50 [56]: 0.506 µM
TGI [56]: > 100 µM
GI50 [20]: 0.021 µM
TGI [20]: 0.0813 µM
GI50 [21]: > 100 µM
TGI [21]: > 100 µM
GI50 [22]: 0.154 µM
TGI [22]: > 100 µM
GI50 [57]: 0.445 µM
TGI [57]: > 100 µM
GI50 [23]: 0.412 µM
TGI [23]: > 100 µM
GI50 [30]: 2.76 µM
TGI [30]: > 23 µM

CCCCNCCC(O)c1cc2ccc(C(F)(F)F)cc2c2cc(C(F)(F)F)ccc12 (centres undefined)
GI50 [32]: 1.82 µM
TGI [32]: 3.41 µM
GI50 [39]: 1.69 µM
TGI [39]: 3.06 µM
GI50 [4]: 1.88 µM
TGI [4]: 3.39 µM
GI50 [45]: 1.78 µM
TGI [45]: 3.35 µM
GI50 [49]: 1.87 µM
TGI [49]: 3.38 µM
GI50 [52]: 1.3 µM
TGI [52]: 2.79 µM
GI50 [16]: 1.1 µM
TGI [16]: 2.44 µM
GI50 [58]: 1.96 µM
TGI [58]: 3.87 µM
GI50 [20]: 1.32 µM
TGI [20]: 2.64 µM
GI50 [21]: 1.52 µM
TGI [21]: 3.02 µM
GI50 [22]: 0.339 µM
TGI [22]: 1.07 µM
GI50 [57]: 1.61 µM
TGI [57]: 3.13 µM
GI50 [23]: 2.04 µM
TGI [23]: 4.63 µM
